Tests used:
lambsquarters = assay: Test Example 5: herbicidal effect by foliage application, plastic box (Table 20, symbol O); assay type: in vivo, lambsquarters (Chenopodium album); settings: foliage application, three weeks after application
How it was run: (§1)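 Sow seeds spot-wise in sterilized diluvial soil; cover with ~1.5 cm soil. Grow 14 days in greenhouse, 25° C. to 30° C. Spray foliage with emulsion diluted to predetermined amount. Rate effect after 3 weeks.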

blackgrass [1] = assay: Test Example 5: herbicidal effect by foliage application, plastic box (Table 20, symbol J); assay type: in vivo, blackgrass (Alopecurus myosuroides); settings: foliage application, three weeks after application
How it was run: as §1

false cleavers [2] = assay: Test Example 4: herbicidal effect by soil treatment (Table 19, symbol Q); assay type: in vivo, false cleavers (Galium spurium); settings: amount of applied herbicide 214 g/ha
How it was run: (§2)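 Applied as a water-diluted emulsion, the compound was sprayed onto soil covering newly sown seeds. Evaluation came three weeks after application, in a greenhouse held at 25° C. to 30° C.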

Italian ryegrass = assay: Test Example 4: herbicidal effect by soil treatment (Table 19, symbol K); assay type: in vivo, Italian ryegrass (Lolium multiflorum)
How it was run: as §2

persian speedwell = assay: Test Example 5: herbicidal effect by foliage application, plastic box (Table 20, symbol R); assay type: in vivo, Persian speedwell (Veronica persica); settings: foliage application, three weeks after application
How it was run: as §1

blackgrass [3] = assay: Test Example 4: herbicidal effect by soil treatment (Table 19, symbol J); assay type: in vivo, blackgrass (Alopecurus myosuroides)
How it was run: as §2

Chinese sprangletop = assay: Test Example 3: herbicidal effect by foliage application, Wagner pot (Table 18, symbol D); assay type: in vivo, chinese sprangletop (Leptochloa chinensis)
How it was run: (§3)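 Plants were sown in alluvial soil held under 0.1–0.5 cm standing water and grown 14 days in a greenhouse at 25–30 °C. An emulsifiable formulation, water-diluted to the set dose, was then sprayed onto the foliage, and effects were scored three weeks later using previously defined criteria.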

wild oat [4] = assay: Test Example 4: herbicidal effect by soil treatment (Table 19, symbol I); assay type: in vivo, wild oat (Avena fatua)
How it was run: as §2

redroot pigweed = assay: Test Example 4: herbicidal effect by soil treatment (Table 19, symbol N); assay type: in vivo, redroot pigweed (Amaranthus retroflexus)
How it was run: as §2

beet = assay: Test Example 4: effect on crop by soil treatment (Table 19, symbol f); assay type: in vivo
How it was run: as §2

corn = assay: Test Example 5: effect on crop by foliage application, plastic box (Table 20, symbol c); assay type: in vivo; settings: three weeks after application
How it was run: as §1

southern crabgrass [5] = assay: Test Example 4: herbicidal effect by soil treatment (Table 19, symbol F); assay type: in vivo, southern crabgrass (Digitaria ciliaris)
How it was run: as §2

wheat [6] = assay: Test Example 4: effect on crop by soil treatment (Table 19, symbol e); assay type: in vivo
How it was run: as §2

southern crabgrass [7] = assay: Test Example 5: herbicidal effect by foliage application, plastic box (Table 20, symbol F); assay type: in vivo, southern crabgrass (Digitaria ciliaris); settings: foliage application, three weeks after application
How it was run: as §1

wild oat [8] = assay: Test Example 5: herbicidal effect by foliage application, plastic box (Table 20, symbol I); assay type: in vivo, wild oat (Avena fatua); settings: foliage application, three weeks after application
How it was run: as §1

oval-leafed pondweed = assay: Test Example 1: herbicidal activity, application before weed generation under submerged conditions (Table 16, symbol C); assay type: in vivo, oval-leafed pondweed (Monochoria vaginalis)
How it was run: (§4)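 Submerged Wagner pots (alluvial soil, 4 cm water) sown with weed seeds and planted with 2.5-leaf rice seedlings; emulsifiable concentrate diluted in water applied to water surface on sowing day. Held in greenhouse at 25-30 °C; injury scored 0-5 by herbicidal rate after three weeks.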

windgrass = assay: Test Example 5: herbicidal effect by foliage application, plastic box (Table 20, symbol L); assay type: in vivo, windgrass (Apera spica-venti); settings: foliage application, three weeks after application
How it was run: as §1

barnyard grass [9] = assay: Test Example 3: herbicidal effect by foliage application, Wagner pot (Table 18, symbol H); assay type: in vivo, barnyard grass (Echinochloa crus-galli)
How it was run: as §3

Japanese bulrush = assay: Test Example 1: herbicidal activity, application before weed generation under submerged conditions (Table 16, symbol B); assay type: in vivo, Japanese bulrush (Schoenoplectus juncoides)
How it was run: as §4

false cleavers [10] = assay: Test Example 5: herbicidal effect by foliage application, plastic box (Table 20, symbol Q); assay type: in vivo, false cleavers (Galium spurium); settings: foliage application, 214 g/ha, three weeks after application
How it was run: as §1

wheat [11] = assay: Test Example 5: effect on crop by foliage application, plastic box (Table 20, symbol e); assay type: in vivo; settings: three weeks after application
How it was run: as §1

barnyard grass [12] = assay: Test Example 5: herbicidal effect by foliage application, plastic box (Table 20, symbol H); assay type: in vivo, barnyard grass (Echinochloa crus-galli); settings: foliage application, three weeks after application
How it was run: as §1

[13] = amount of applied herbicide 214 g/ha
[14] = amount of applied herbicide 320 g/ha

Which results are given for `COc1ccc2c(-c3c(O)c(C)nn(C)c3=O)c(-c3ccccc3OC)sc2c1` [Compound No. 3-065, 5-hydroxy-4-(6-methoxy-2-(2-methoxyphenyl)benzo[b]thiophen-3-yl)-2,6-dimethylpyridazin-3(2H)-one]?
O: lambsquarters, herbicidal effect grade (lambsquarters; 214 g/ha): 3 (Herbicidal rate of 40% or more and less than 70%); J: blackgrass, herbicidal effect grade (blackgrass [1]; 214 g/ha): 5 (Herbicidal rate of 90% or more (almost completely withered)); Q: false cleavers, herbicidal effect grade (false cleavers [2]): 4 (Herbicidal rate of 70% or more and less than 90%); K: Italian ryegrass, herbicidal effect grade (Italian ryegrass; [13]): 3 (Herbicidal rate of 40% or more and less than 70%); R: persian speedwell, herbicidal effect grade (persian speedwell; 214 g/ha): 5 (Herbicidal rate of 90% or more (almost completely withered)); J: blackgrass, herbicidal effect grade (blackgrass [3]; [13]): 3 (Herbicidal rate of 40% or more and less than 70%); herbicidal effect on Chinese sprangletop (D) (Chinese sprangletop; 214 g/ha): 2 (Herbicidal rate of 20% or more and less than 40%); I: wild oat, herbicidal effect grade (wild oat [4]; [13]): 2 (Herbicidal rate of 20% or more and less than 40%); N: redroot pigweed, herbicidal effect grade (redroot pigweed; [13]): 4 (Herbicidal rate of 70% or more and less than 90%); f: beet, effect on crop grade (beet; [13]): 3 (Herbicidal rate of 40% or more and less than 70%); c: corn, effect on crop grade (corn; 214 g/ha): 0 (Herbicidal rate of 5% or less (almost no effect)); melting point: 243 to 244 °C; F: southern crabgrass, herbicidal effect grade (southern crabgrass [5]; [13]): 3 (Herbicidal rate of 40% or more and less than 70%); e: wheat, effect on crop grade (wheat [6]; [13]): 0 (Herbicidal rate of 5% or less (almost no effect)); F: southern crabgrass, herbicidal effect grade (southern crabgrass [7]; 214 g/ha): 4 (Herbicidal rate of 70% or more and less than 90%); I: wild oat, herbicidal effect grade (wild oat [8]; 214 g/ha): 4 (Herbicidal rate of 70% or more and less than 90%); Herbicidal effect, C: oval-leafed pondweed (oval-leafed pondweed; [13]): 3 (Herbicidal rate of 40% or more and less than 70%); L: windgrass, herbicidal effect grade (windgrass; 214 g/ha): 4 (Herbicidal rate of 70% or more and less than 90%); herbicidal effect on barnyard grass (H) (barnyard grass [9]; 214 g/ha): 5 (Herbicidal rate of 90% or more (almost completely withered)); Herbicidal effect, B: Japanese bulrush (Japanese bulrush; [13]): 3 (Herbicidal rate of 40% or more and less than 70%); Q: false cleavers, herbicidal effect grade (false cleavers [10]): 5 (Herbicidal rate of 90% or more (almost completely withered)); e: wheat, effect on crop grade (wheat [11]; 214 g/ha): 2 (Herbicidal rate of 20% or more and less than 40%); H: barnyard grass, herbicidal effect grade (barnyard grass [12]; 214 g/ha): 5 (Herbicidal rate of 90% or more (almost completely withered))

Which “O: lambsquarters, herbicidal effect grade” value (lambsquarters; 320 g/ha) does the source give for `COc1ccc2c(-c3c(O)c(Cl)nn(C)c3=O)c(-c3ccccc3OC)sc2c1` [Compound No. 3-088, 6-chloro-5-hydroxy-4-(6-methoxy-2-(2-methoxyphenyl)benzo[b]thiophen-3-yl)-2-methylpyridazin-3(2H)-one] here?
The value was 4 (Herbicidal rate of 70% or more and less than 90%).

What about the “J: blackgrass, herbicidal effect grade” value (blackgrass [1]; 320 g/ha) of the same compound?
The value was 3 (Herbicidal rate of 40% or more and less than 70%).

And the “K: Italian ryegrass, herbicidal effect grade” value (Italian ryegrass; [14])?
The value was 0 (Herbicidal rate of 5% or less (almost no effect)).

And the “R: persian speedwell, herbicidal effect grade” value (persian speedwell; 320 g/ha)?
The value was 5 (Herbicidal rate of 90% or more (almost completely withered)).

What about the “J: blackgrass, herbicidal effect grade” value (blackgrass [3]; [14]) of the same compound?
Its value is 0 (Herbicidal rate of 5% or less (almost no effect)).

And the “herbicidal effect on Chinese sprangletop (D)” value (Chinese sprangletop; 320 g/ha)?
The value was 4 (Herbicidal rate of 70% or more and less than 90%).

And the “I: wild oat, herbicidal effect grade” value (wild oat [4]; [14])?
The value was 0 (Herbicidal rate of 5% or less (almost no effect)).

What about the “N: redroot pigweed, herbicidal effect grade” value (redroot pigweed; [14]) of the same compound?
Its value is 5 (Herbicidal rate of 90% or more (almost completely withered)).

And the “f: beet, effect on crop grade” value (beet; [14])?
The value was 3 (Herbicidal rate of 40% or more and less than 70%).

And the “c: corn, effect on crop grade” value (corn; 320 g/ha)?
The value was 0 (Herbicidal rate of 5% or less (almost no effect)).

And the melting point?
The melting point was 209 to 211 °C.

And the “F: southern crabgrass, herbicidal effect grade” value (southern crabgrass [5]; [14])?
The value was 4 (Herbicidal rate of 70% or more and less than 90%).

And the “e: wheat, effect on crop grade” value (wheat [6]; [14])?
Its value is 0 (Herbicidal rate of 5% or less (almost no effect)).

What about the “F: southern crabgrass, herbicidal effect grade” value (southern crabgrass [7]; 320 g/ha) of the same compound?
The value was 0 (Herbicidal rate of 5% or less (almost no effect)).

What about the “I: wild oat, herbicidal effect grade” value (wild oat [8]; 320 g/ha) of the same compound?
The value was 3 (Herbicidal rate of 40% or more and less than 70%).

And the “Herbicidal effect, C: oval-leafed pondweed” value (oval-leafed pondweed; [14])?
The value was 5 (Herbicidal rate of 90% or more (almost completely withered)).

What about the “L: windgrass, herbicidal effect grade” value (windgrass; 320 g/ha) of the same compound?
The value was 3 (Herbicidal rate of 40% or more and less than 70%).

What about the “herbicidal effect on barnyard grass (H)” value (barnyard grass [9]; 320 g/ha) of the same compound?
The value was 5 (Herbicidal rate of 90% or more (almost completely withered)).

What about the “Herbicidal effect, B: Japanese bulrush” value (Japanese bulrush; [14]) of the same compound?
The value was 5 (Herbicidal rate of 90% or more (almost completely withered)).

And the “e: wheat, effect on crop grade” value (wheat [11]; 320 g/ha)?
Its value is 0 (Herbicidal rate of 5% or less (almost no effect)).

What about the “H: barnyard grass, herbicidal effect grade” value (barnyard grass [12]; 320 g/ha) of the same compound?
The value was 4 (Herbicidal rate of 70% or more and less than 90%).

Which results are given for `COc1ccccc1-c1sc2cc(OCC(F)(F)F)ccc2c1-c1c(O)c(C)nn(C)c1=O` [Compound No. 3-116, 5-hydroxy-4-(2-(2-methoxyphenyl)-6-(2,2,2-trifluoroethoxy)benzo[b]thiophen-3-yl)-2,6-di methylpyridazin-3 (2H)-one]?
O: lambsquarters, herbicidal effect grade (lambsquarters; 320 g/ha): 5 (Herbicidal rate of 90% or more (almost completely withered)); J: blackgrass, herbicidal effect grade (blackgrass [1]; 320 g/ha): 5 (Herbicidal rate of 90% or more (almost completely withered)); K: Italian ryegrass, herbicidal effect grade (Italian ryegrass; [14]): 5 (Herbicidal rate of 90% or more (almost completely withered)); R: persian speedwell, herbicidal effect grade (persian speedwell; 320 g/ha): 5 (Herbicidal rate of 90% or more (almost completely withered)); J: blackgrass, herbicidal effect grade (blackgrass [3]; [14]): 4 (Herbicidal rate of 70% or more and less than 90%); herbicidal effect on Chinese sprangletop (D) (Chinese sprangletop; 320 g/ha): 5 (Herbicidal rate of 90% or more (almost completely withered)); I: wild oat, herbicidal effect grade (wild oat [4]; [14]): 3 (Herbicidal rate of 40% or more and less than 70%); N: redroot pigweed, herbicidal effect grade (redroot pigweed; [14]): 5 (Herbicidal rate of 90% or more (almost completely withered)); f: beet, effect on crop grade (beet; [14]): 5 (Herbicidal rate of 90% or more (almost completely withered)); c: corn, effect on crop grade (corn; 320 g/ha): 0 (Herbicidal rate of 5% or less (almost no effect)); melting point: 216 to 218 °C; F: southern crabgrass, herbicidal effect grade (southern crabgrass [5]; [14]): 5 (Herbicidal rate of 90% or more (almost completely withered)); e: wheat, effect on crop grade (wheat [6]; [14]): 1 (Herbicidal rate of 5% or more and less than 20%); F: southern crabgrass, herbicidal effect grade (southern crabgrass [7]; 320 g/ha): 5 (Herbicidal rate of 90% or more (almost completely withered)); I: wild oat, herbicidal effect grade (wild oat [8]; 320 g/ha): 5 (Herbicidal rate of 90% or more (almost completely withered)); Herbicidal effect, C: oval-leafed pondweed (oval-leafed pondweed; [14]): 5 (Herbicidal rate of 90% or more (almost completely withered)); L: windgrass, herbicidal effect grade (windgrass; 320 g/ha): 5 (Herbicidal rate of 90% or more (almost completely withered)); herbicidal effect on barnyard grass (H) (barnyard grass [9]; 320 g/ha): 5 (Herbicidal rate of 90% or more (almost completely withered)); Herbicidal effect, B: Japanese bulrush (Japanese bulrush; [14]): 5 (Herbicidal rate of 90% or more (almost completely withered)); e: wheat, effect on crop grade (wheat [11]; 320 g/ha): 3 (Herbicidal rate of 40% or more and less than 70%); H: barnyard grass, herbicidal effect grade (barnyard grass [12]; 320 g/ha): 5 (Herbicidal rate of 90% or more (almost completely withered))

Reference: patent US20230085307A1, “PYRIDAZINONE COMPOUND AND HERBICIDE” (NISSAN CHEMICAL CORPORATION, priority 2019, published 2023)
